Results from patent publication US20250066344A1 (BRISTOL-MYERS SQUIBB COMPANY, priority 2021, published 2025).

target: T1, human RXFP1 (Homo sapiens, UniProt Q9HBX9); experiment: RXFP1 cyclic adenosine monophosphate (cAMP) assay, hRXFP1 HEK293; format: cell-based; conditions: HEK293 cells stably expressing human RXFP1; 30 min at room temperature; HTRF cAMP
T1 construct: expressed in transfected cells
T1 sequence (Q9HBX9 1-757): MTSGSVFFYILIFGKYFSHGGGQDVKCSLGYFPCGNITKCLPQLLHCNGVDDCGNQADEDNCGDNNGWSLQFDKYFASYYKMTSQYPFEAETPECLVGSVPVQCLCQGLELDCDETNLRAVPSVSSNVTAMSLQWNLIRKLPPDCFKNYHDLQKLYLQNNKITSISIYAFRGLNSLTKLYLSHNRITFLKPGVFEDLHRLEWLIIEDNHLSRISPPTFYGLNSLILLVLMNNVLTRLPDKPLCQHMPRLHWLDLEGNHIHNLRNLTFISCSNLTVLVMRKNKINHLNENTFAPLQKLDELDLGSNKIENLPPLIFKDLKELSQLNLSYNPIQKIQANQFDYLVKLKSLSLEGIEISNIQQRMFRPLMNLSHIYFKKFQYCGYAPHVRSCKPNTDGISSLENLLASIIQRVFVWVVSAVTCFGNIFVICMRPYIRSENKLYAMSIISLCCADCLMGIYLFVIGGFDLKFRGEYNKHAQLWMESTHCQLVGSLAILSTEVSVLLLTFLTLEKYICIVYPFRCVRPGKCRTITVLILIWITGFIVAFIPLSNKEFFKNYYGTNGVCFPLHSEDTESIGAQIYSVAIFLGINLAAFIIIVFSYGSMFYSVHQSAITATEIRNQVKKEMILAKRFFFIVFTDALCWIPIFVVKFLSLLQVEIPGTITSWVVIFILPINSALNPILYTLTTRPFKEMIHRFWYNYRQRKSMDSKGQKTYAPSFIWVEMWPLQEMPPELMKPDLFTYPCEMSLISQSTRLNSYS
Experimental: RXFP1 Cyclic Adenosine Monophosphate (cAMP) Assays. Human embryonic kidney cells 293 (HEK293) cells and HEK293 cells stably expressing human RXFP1, were cultured in MEM medium supplemented with 10% qualified FBS, and 300 μg/ml hygromycin (Life Technologies). Cells were dissociated and suspended in assay buffer. The assay buffer was HBSS buffer (with calcium and magnesium) containing 20 mM HEPES, 0.05% BSA, and 0.5 mM IBMX. Cells (3000 cells per well, except 1500 cell per well for HEK293 cells stably expressing human RXFP1) were added to 384-well Proxiplates (Perkin-Elmer). Cells were immediately treated with test compounds in DMSO (2% final) at final concentrations in the range of 0.010 nM to 50 μM. Cells were incubated for 30 min at room temperature. The level of intracellular cAMP was determined using the HTRF HiRange cAMP assay reagent kit (Cisbio) according to manufacturer's instructions. Solutions of cryptate conjugated anti-cAMP and d2 fluorophore-labelled cAMP were made in a supplied lysis buffer separately. Upon completion of the reaction, the cells were lysed with equal volume of the d2-cAMP solution and anti-cAMP solution. After a 1 h room temperature incubation, time-resolved fluorescence intensity was measured using the Envision (Perkin-Elmer) at 400 nm excitation and dual emission at 590 nm and 665 nm. A calibration curve was constructed with an external cAMP standard at concentrations ranging from 2.7 μM to 0.1 μM by plotting the fluorescent intensity ratio from 665 nm emission to the intensity from the 590 nm emission against cAMP concentrations. The potency and activity of a compound to […] cAMP production was then determined by fitting to a 4-parametric logistic equation from a plot of cAMP level versus compound concentrations.
The examples disclosed below were tested in the human RXFP1 (hRXFP) HEK293 cAMP assay described above and found to have agonist activity. Tables 1-3, lists EC50 values in the hRXFP1 HEK293 cAMP assay measured for the examples.
Table A lists EC50 values in the hRXFP1 HEK293 cAMP assay measured for the examples.

SMILES | EC50 [nM]
COc1ccc(C2=NOC3COCC23)cc1C(=O)Nc1cc2nc(C)sc2cc1C(=O)Nc1ccc(F)c(C(F)(F)F)c1 (single isomer, unassigned) [Example 2, N-(4-fluoro-3-(trifluoromethyl)phenyl)-5-(2-methoxy-5-(3a,4,6,6a-tetrahydrofuro[3,4-d]isoxazol-3-yl)benzamido)-2-methylbenzo[d]thiazole-6-carboxamide] | 1000
COc1ccc(C2=NOC3CC(O)CC23)cc1C(=O)Nc1cc2nc(C)sc2cc1C(=O)Nc1ccc(F)c(C(F)(F)F)c1 (single isomer, unassigned) [Example 8, N-(4-fluoro-3-(trifluorometh-yl)phenyl)-5-(5-(5-hydroxy-3a,5,6,6a-tetra-hydro-4H-cyclopenta[d]isoxazol-3-yl)-2-methoxy-benzamido)-2-methylbenzo [d]thiazole-6-carboxamide] | 40
COc1ccc(C2=NOC3CC(O)CC23)cc1C(=O)Nc1cc2nc(C)sc2cc1C(=O)Nc1ccc(F)c(C(F)(F)F)c1 (single isomer, unassigned) [Example 23, N-(4-fluoro-3-(trifluorometh-yl)phenyl)-5-(5-(5-hydroxy-3a,5,6,6a-tetrahydro-4H-cyclopenta [d]isoxazol-3-yl)-2-methoxy-benzamido)-2-methylbenzo [d]thiazole-6-carboxamide] | 750
COc1ccc(C2=NOC3CC(O)CC23)cc1C(=O)Nc1cc2nc(C)sc2cc1C(=O)Nc1ccc(F)c(C(F)(F)F)c1 (single isomer, unassigned) [Example 24, N-(4-fluoro-3-(trifluoro-methyl)phen-yl)-5-(5-(5-hydroxy-3a,5,6,6a-tetrahydro-4H-cyclopenta [d]isoxazol-3-yl)-2-methoxy-benzamido)-2-methylbenzo [d]thiazole-6-carboxamide] | 750

Now from value to molecule:

EC50 [nM] | SMILES
2200 | COc1ccc(C2=NOC3CC(O)CC23)cc1C(=O)Nc1cc2nc(C)sc2cc1C(=O)Nc1ccc(F)c(C(F)(F)F)c1 (single isomer, unassigned) [Example 27, N-(4-fluoro-3-(trifluorometh-yl)phenyl)-5-(5-(5-hydroxy-3a,5,6,6a-tetra-hydro-4H-cyclopenta[d]isoxazol-3-yl)-2-methoxy-benzamido)-2-methylbenzo [d]thiazole-6-carboxamide]
15 | COc1ccc(-c2cc(C(NC(=O)C3CCOCC3)C(=O)O)ccc2F)cc1C(=O)Nc1cc2sc(C)nc2cc1C(=O)Nc1ccc(F)c(C(F)(F)F)c1 (single isomer, unassigned) [Example 30, 2-(6-fluoro-3′-((5-((4-fluoro-3-(trifluoromethyl)phenyl)carbamoyl)-2-methylbenzo[d]thiazol-6-yl)carbamoyl)-4′-methoxy-[1,1′-biphenyl]-3-yl)-2-(tetrahydro-2H-pyran-4-carboxamido)acetic acid]
13 | COc1ccc(C2=NOC3CNCC23)cc1C(=O)Nc1cc2c(cc1C(=O)Nc1ccc(F)c(C(F)(F)F)c1)OC(F)(F)O2 (single isomer, unassigned) [Example 43, 2,2-difluoro-N-(4-fluoro-3-(trifluoromethyl)phenyl)-6-(2-methoxy-5-(3a,5,6,6a-tetrahydro-4H-pyrrolo[3,4-d]isoxazol-3-yl)benzamido)benzo[d][1,3]dioxole-5-carboxamide]
49 | COc1ccc(C2CCN(C(=O)C(C)(C)O)C2)cc1C(=O)Nc1cc2c(cc1C(=O)Nc1ccc(F)c(C(F)(F)F)c1)OC(F)(F)O2 (single isomer, unassigned) [Example 46, 2,2-difluoro-N-(4-fluoro-3-(trifluoromethyl)phenyl)-6-(5-(1-(2-hydroxy-2-methylpropanoyl)pyrrolidin-3-yl)-2-methoxybenzamido)benzo[d][1,3]dioxole-5-carboxamide]
154 | COc1ccc(C2CCCN(S(C)(=O)=O)C2)cc1C(=O)Nc1cc2c(cc1C(=O)Nc1ccc(F)c(C(F)(F)F)c1)OC(F)(F)O2 (single isomer, unassigned) [Example 49, 2,2-difluoro-N-(4-fluoro-3-(trifluoromethyl)phenyl)-6-(2-methoxy-5-(1-(methylsulfonyl)piperidin-3-yl)benzamido)benzo[d][1,3]dioxole-5-carboxamide]
